Test system: A549
Assay: Cytotoxicity against human A549 cells at 200 umol/mL after 48 hrs by MTT assay
Format: functional

Question: `CCOC(=O)c1cc([C@H]2OC[C@@H](OS(C)(=O)=O)[C@@H]2Cl)oc1C` was tested. Which Inhibition did it give?
Answer: The Inhibition was 27.87%.

Question: For `CC(=O)c1cc([C@H]2OC[C@@H](N=[N+]=[N-])[C@@H]2Cl)oc1C`, which Inhibition is on record?
Answer: The Inhibition was 56.7%.

Question: Which Inhibition does the source give for `CCOC(=O)c1cc([C@H]2OC[C@@H](O)[C@@H]2Cl)oc1C` here?
Answer: Its Inhibition is 25.72%.

Question: `CCOC(=O)c1cc([C@H]2OC[C@@H](N=[N+]=[N-])[C@@H]2Cl)oc1C` was tested. Which Inhibition did it give?
Answer: Its Inhibition is 36.89%.

Question: With `COC(=O)c1cc([C@H]2OCC(=O)[C@@H]2Cl)oc1C` as the molecule, how does the Inhibition read?
Answer: Its Inhibition is 37.67%.

Question: For `CC(=O)c1cc(C2OC[C@@H](O)[C@@H]2O)oc1C` (stereo partly drawn), which Inhibition is on record?
Answer: Its Inhibition is 33.09%.

Question: `CC(=O)c1cc([C@H]2OC[C@@H](O)[C@@H]2Cl)oc1C` was tested. Which Inhibition did it give?
Answer: Its Inhibition is 39.36%.

Question: With `CCOC(=O)c1cc([C@H]2OCC(=O)[C@@H]2Cl)oc1C` as the molecule, how does the Inhibition read?
Answer: The Inhibition was 45.68%.

Question: With `CC(=O)c1cc([C@H]2OC[C@@H](N)[C@@H]2Cl)oc1C` as the molecule, how does the Inhibition read?
Answer: Its Inhibition is 34.57%.

Question: Which Inhibition does the source give for `CCOC(=O)c1cc([C@H]2OC[C@@H](N)[C@@H]2Cl)oc1C` here?
Answer: Its Inhibition is 24.82%.

Question: Which Inhibition does the source give for `CC(=O)c1cc([C@H]2OC[C@@H](OS(C)(=O)=O)[C@@H]2Cl)oc1C` here?
Answer: Its Inhibition is 46.8%.

Test system: A549
Assay: Cytotoxicity against human A549 cells at 100 umol/mL after 48 hrs by MTT assay
Format: functional

Question: For `CCOC(=O)c1cc([C@H]2OC[C@@H](OS(C)(=O)=O)[C@@H]2Cl)oc1C`, which Inhibition is on record?
Answer: The Inhibition was 18.55%.

Question: How did the Inhibition turn out when `CC(=O)c1cc([C@H]2OC[C@@H](N=[N+]=[N-])[C@@H]2Cl)oc1C` was run?
Answer: The Inhibition was 48.6%.

Question: With `CCOC(=O)c1cc([C@H]2OC[C@@H](O)[C@@H]2Cl)oc1C` as the molecule, how does the Inhibition read?
Answer: Its Inhibition is 18.51%.

Question: `CCOC(=O)c1cc([C@H]2OC[C@@H](N=[N+]=[N-])[C@@H]2Cl)oc1C` was tested. Which Inhibition did it give?
Answer: The Inhibition was 19.79%.

Question: Which Inhibition does the source give for `COC(=O)c1cc([C@H]2OCC(=O)[C@@H]2Cl)oc1C` here?
Answer: Its Inhibition is 28.55%.

Question: With `CC(=O)c1cc(C2OC[C@@H](O)[C@@H]2O)oc1C` (stereo partly drawn) as the molecule, how does the Inhibition read?
Answer: Its Inhibition is 27.4%.

Question: `CC(=O)c1cc([C@H]2OC[C@@H](O)[C@@H]2Cl)oc1C` was tested. Which Inhibition did it give?
Answer: The Inhibition was 31.92%.

Question: How did the Inhibition turn out when `CCOC(=O)c1cc([C@H]2OCC(=O)[C@@H]2Cl)oc1C` was run?
Answer: The Inhibition was 31.36%.

Question: How did the Inhibition turn out when `CC(=O)c1cc([C@H]2OC[C@@H](N)[C@@H]2Cl)oc1C` was run?
Answer: The Inhibition was 24.86%.

Question: With `CCOC(=O)c1cc([C@H]2OC[C@@H](N)[C@@H]2Cl)oc1C` as the molecule, how does the Inhibition read?
Answer: Its Inhibition is 16.29%.

Question: How did the Inhibition turn out when `CC(=O)c1cc([C@H]2OC[C@@H](OS(C)(=O)=O)[C@@H]2Cl)oc1C` was run?
Answer: The Inhibition was 35.65%.

Test system: A549
Assay: Cytotoxicity against human A549 cells at 50 umol/mL after 48 hrs by MTT assay
Format: functional

Question: How did the Inhibition turn out when `CCOC(=O)c1cc([C@H]2OC[C@@H](OS(C)(=O)=O)[C@@H]2Cl)oc1C` was run?
Answer: The Inhibition was 15.3%.

Question: For `CC(=O)c1cc([C@H]2OC[C@@H](N=[N+]=[N-])[C@@H]2Cl)oc1C`, which Inhibition is on record?
Answer: The Inhibition was 32.73%.

Question: Which Inhibition does the source give for `CCOC(=O)c1cc([C@H]2OC[C@@H](O)[C@@H]2Cl)oc1C` here?
Answer: Its Inhibition is 15.15%.

Question: How did the Inhibition turn out when `CCOC(=O)c1cc([C@H]2OC[C@@H](N=[N+]=[N-])[C@@H]2Cl)oc1C` was run?
Answer: Its Inhibition is 18.28%.

Question: With `COC(=O)c1cc([C@H]2OCC(=O)[C@@H]2Cl)oc1C` as the molecule, how does the Inhibition read?
Answer: The Inhibition was 21.49%.

Question: Which Inhibition does the source give for `CC(=O)c1cc(C2OC[C@@H](O)[C@@H]2O)oc1C` (stereo partly drawn) here?
Answer: The Inhibition was 23.14%.

Question: For `CC(=O)c1cc([C@H]2OC[C@@H](O)[C@@H]2Cl)oc1C`, which Inhibition is on record?
Answer: Its Inhibition is 24.36%.

Question: `CCOC(=O)c1cc([C@H]2OCC(=O)[C@@H]2Cl)oc1C` was tested. Which Inhibition did it give?
Answer: The Inhibition was 28.81%.

Question: For `CC(=O)c1cc([C@H]2OC[C@@H](N)[C@@H]2Cl)oc1C`, which Inhibition is on record?
Answer: The Inhibition was 13.04%.

Question: For `CCOC(=O)c1cc([C@H]2OC[C@@H](N)[C@@H]2Cl)oc1C`, which Inhibition is on record?
Answer: Its Inhibition is 10.09%.

Question: Which Inhibition does the source give for `CC(=O)c1cc([C@H]2OC[C@@H](OS(C)(=O)=O)[C@@H]2Cl)oc1C` here?
Answer: Its Inhibition is 26.42%.

Reference: ChEMBL document CHEMBL1139957, “Synthesis of furanosyl alpha-C-glycosides derived from 4-chloro-4-deoxy-alpha-D-galactose and their cytotoxic activities” (2007)
